Measurements as given in patent US20210386829A1, “COMPOSITIONS AND METHODS FOR MODULATING CGRP SIGNALING TO REGULATE INNATE LYMPHOID CELL INFLAMMATORY RESPONSES” (The Broad Institute, Inc., priority 2018, published 2021).

Test system: IL-33-induced airway inflammation in RAG2 KO mice
Experiment: IL-33-induced airway inflammation in RAG2 KO mice, intranasal co-administration of CGRP
Format: in vivo, mouse
Settings: IL-33+CGRP vs IL-33 alone
Text: Animals. All experiments involving mice were approved by the Institutional Animal Care and Use Committee (IACUC) at Brigham and Women's Hospital. Mice were maintained in the animal facility at Brigham and Women's Hospital under specific pathogen-free conditions with food and water ad libitum and a 12-hour dark/light cycle. Mice were age- and sex-matched for experiments and were randomly assigned to experimental groups. C57BL/6J mice and RAG2 KO mice were purchased from the Jackson Laboratory. CGRP-GFP-hDTR mice were kindly provided by I. Chiu (Harvard Medical School, Boston).
Cytokine-induced airway inflammation. Mice received nasally 500 ng IL-25, 500 ng IL-33, 20 ug NMU or 6.65 ug CGRP diluted in DPBS for three consecutive days. For nasal administration, mice were lightly anesthetized with Isoflurane (Cat #07-893-1389; Patterson Veterinary). For induction of inflammatory ILC2s, mice received intraperitoneally 500 ng IL-25 for three consecutive days. One day after the last treatment, mice were euthanized and perfused with 8 ml cold PBS via the right heart ventricle. After exposure of the trachea, a small incision was made at the top of the trachea and a curved gavage needle was inserted. Lungs were washed with 1.5 ml cold PBS via the needle and the retrieved bronchoalveolar lavage fluid was centrifuged at 1300 rpm for 5 min at 4 C. After centrifugation, the supernatant was frozen at −20° C. and the cell pellet was resuspended in 250 ul complete medium and stored on ice until flow cytometric analysis. The post-caval lung lobe was transferred into 10% buffered formalin and stored at room temperature until paraffin embedding for histological analysis. The other lung lobes were dissociated using the lung dissociation kit (Cat #130-095-927; Miltenyi Biotec) and automated tissue dissociator (gentleMACS; Miltenyi Biotec) as described above with the adjustment that after running program lung_02, the single cell suspension was centrifuged at 1300 rpm for 5 min at 4° C. and 1 ml of the supernatant was frozen at −20° C. Single-cell suspension was resuspended in complete cell culture medium and stored on ice until further processing.
For cell counts, lung cells were transferred into FACS tubes and stained with 7AAD. Precision Count Beads (Cat #424902; BioLegend) were added according to manufacturer's instructions. Cells and beads were acquired on a BD LSRFortessa (BD Biosciences) and cell numbers were calculated based on number of acquired live (7AAD−) cells and number of acquired beads.
For flow cytometric analysis, lung cells were transferred into a 96 well V-bottom plate and stained with surface antibodies for 20 min at 4° C. in the dark. Cells were washed twice with DPBS containing 2% fetal bovine serum and transferred into 1.2 ml tubes for analysis by flow cytometry. For intracellular cytokine staining, cells were incubated in complete cell culture medium with 50 ng/ml phorbol 12-myristate 13-acetate (Sigma-Aldrich), 1 uM ionomycin (Sigma-Aldrich) and GolgiStop (Cat #554724; BD Biosciences) in a humidified incubator at 37° C. and 10% CO2. After 5 hours, cells were transferred into 96 well V-bottom plate, stained with Fixable Viability Dye eFluor 506 (Cat #65-0866-14; Thermo Fisher) and surface antibodies for 20 min at 4° C. in the dark and washed twice with DPBS containing 2% fetal bovine serum. Then, cells were incubated with BD Cytofix/Cytoperm Buffer (Cat #51-2090KZ; BD Biosciences) for 20 min, followed by a wash with BD Perm/Wash Buffer (Cat #51-2091KZ; BD Biosciences). Subsequently, cells were incubated with antibodies targeting intracellular proteins diluted in BD Perm/Wash Buffer for 20 min and after two wash steps, transferred into 1.2 ml tubes for analysis by flow cytometry. […]

Substance: CGRP: neuropeptide calcitonin gene-related peptide (encoded by Calca), ligand of the Ramp1/Calcrl receptor; given at 100 nM in vitro, 6.65 ug nasally
- Il5 and Il13 transcripts in lung tissue: significantly reduced
- concentration of IL-5 and IL-13 protein in lung homogenates and BALF: significantly reduced
- eosinophil numbers in lung tissue and BALF: significantly reduced
- frequency of IL-5-positive ILCs: no difference
- frequency of IL-13-positive ILC2s: significantly lower
- total numbers of lung ILCs: marked reduction
- frequency of lung ILCs (intranasal, three consecutive days): non-significant trend towards a reduced frequency
